The record followed here is ChEMBL document CHEMBL1201862, “PubChem BioAssay data set” (2004).

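Assay format: 96-well plates, 48-hour exposure. Abbreviation: GI50, concentration required for 50% inhibition of growth.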 Activity calls are given as the source filed them. Rule as the data show it: active = GI50 up to about 1.1 µM and inactive = higher. Residues, ends and D or L forms follow the SMILES beside them. *: point of attachment. Boc = CC(C)(C)OC(=O)*; Bz = O=C(c1ccccc1)* Bounds are passed on as bounds.

Test systems include PC-3; SK-MEL-2; K562; CCRF-CEM; T47D; UO-31; NCI-H460; LOX IMVI; SK-MEL-28; HL-60; MOLT-4; HOP-92; RXF 393; Hs-578T; U-251; HOP-62; 786-0; UACC-257; EKVX; HCT-15.
Assay in all cases: growth of human tumour cells (NCI), 48 h

For the compound `ClCC[N+]12CC[N+](CCCl)(CC1)C2`, the GI50 in the experiment with PC-3, with SK-MEL-2, with K562, in the experiment with CCRF-CEM, in the experiment with T47D and in the experiment with UO-31 was > 100 µM (inactive) in each case. For the same compound, the GI50 was > 87.7 µM (inactive) with NCI-H460; > 100 µM (inactive) with LOX IMVI; > 100 µM (inactive) in the experiment on SK-MEL-28; > 100 µM (inactive) in the experiment with HL-60; > 100 µM (inactive) with MOLT-4; > 100 µM (inactive) in the experiment with HOP-92. Besides, the GI50 in the experiment with RXF 393, with Hs-578T, with U-251, in the experiment on HOP-62, in the experiment with 786-0 and with UACC-257 was > 100 µM (inactive) throughout. Besides, the GI50 in the experiment with EKVX is > 100 µM (inactive); with HCT-15, above 100 µM.

In the case of `COC1CC(C)(N)C(O)C(C)O1` (configuration not stated), the GI50 in the experiment with PC-3, with SK-MEL-2, in the experiment on K562, with CCRF-CEM, in the experiment on T47D and with UO-31 was > 100 µM (inactive) throughout. The GI50 with NCI-H460, in the experiment on LOX IMVI, in the experiment with SK-MEL-28, in the experiment on HL-60, in the experiment with MOLT-4 and in the experiment with HOP-92 was > 100 µM (inactive) in each case. Further, the GI50 with RXF 393, in the experiment with Hs-578T, with U-251, in the experiment on HOP-62, in the experiment on 786-0 and in the experiment on UACC-257 was > 100 µM (inactive) throughout. For the same compound, the figures for the GI50 in the experiment with EKVX and in the experiment with HCT-15 were > 100 µM (inactive) and above 100 µM, respectively.

In the case of `CNC(=O)/C=C/C1=CN2C(=O)c3ccc(C)c(O)c3NC(OC)C2C1` (configuration not stated), the GI50 is < 0.016 µM (active) in the experiment on PC-3; 0.0125 µM (active) in the experiment on SK-MEL-2; < 0.0247 µM (active) in the experiment on CCRF-CEM; < 0.0181 µM (active) in the experiment with T47D; < 0.0143 µM (active) in the experiment with UO-31; 0.0135 µM (active) in the experiment with NCI-H460. Besides, the GI50 was < 0.0142 µM (active) in the experiment on LOX IMVI; 0.0145 µM (active) with SK-MEL-28; 0.0298 µM (active) in the experiment with HL-60; 0.0183 µM (active) with MOLT-4; 0.0166 µM (active) in the experiment with HOP-92; < 0.01 µM (active) in the experiment with RXF 393. Also, the GI50 in the experiment with Hs-578T was < 0.0145 µM (active); in the experiment with U-251, < 0.0161 µM (active); in the experiment with HOP-62 it was < 0.0143 µM (active); in the experiment with 786-0, < 0.01 µM (active); with UACC-257, < 0.013 µM (active); in the experiment on EKVX, 0.0163 µM (active). For the same compound, the GI50 in the experiment on HCT-15 was below 0.0131 µM.

On to `CCN(CC)c1ccc(/C=C/c2ccnc3ccccc23)cc1`, for which the GI50 in the experiment with PC-3, with SK-MEL-2, in the experiment with K562, in the experiment on CCRF-CEM, with T47D and in the experiment on UO-31 was > 100 µM (inactive) in each case. For the same compound, the GI50 with NCI-H460, in the experiment with LOX IMVI, in the experiment with SK-MEL-28, in the experiment with HL-60, with HOP-92 and in the experiment on RXF 393 was > 100 µM (inactive) each time. The GI50 with Hs-578T, with U-251, in the experiment with HOP-62, with 786-0, with UACC-257 and in the experiment with EKVX was > 100 µM (inactive) in each case. The compound further gave a GI50 in the experiment with HCT-15 above 100 µM.

With `Cc1ccc([N+](=O)[O-])cc1S(=O)(=O)Nc1ccc(C2=NOC(c3ccccc3)C2)cc1` (configuration not stated), the GI50 in the experiment on PC-3 was 7.19 µM (inactive); in the experiment on SK-MEL-2 it was 3.65 µM (inactive); in the experiment with K562, 1.96 µM (inactive); in the experiment on CCRF-CEM, 9.48 µM (inactive); with T47D, 5.77 µM (inactive); in the experiment with UO-31, 18.2 µM (inactive). The GI50 with NCI-H460 was 5.52 µM (inactive); with LOX IMVI, 10.9 µM (inactive); with SK-MEL-28 it was 18.7 µM (inactive); with HL-60, 5.12 µM (inactive); with MOLT-4 it was 2.61 µM (inactive); in the experiment with HOP-92 it was 15.7 µM (inactive). For the same compound, the GI50 in the experiment with RXF 393 is 1.82 µM (inactive); in the experiment on Hs-578T it was 19.8 µM (inactive); with HOP-62, 5.3 µM (inactive); with 786-0 it was 13.8 µM (inactive); with UACC-257 it was 14.7 µM (inactive); in the experiment with EKVX it was 17.7 µM (inactive). This compound showed a GI50 with HCT-15 of 4.11 µM.

As for `Cc1ccc(NC(=O)CC(=O)n2nc(C)c(/N=N/c3cccc(C)c3)c2C)cc1`, the GI50 is > 100 µM (inactive) in the experiment on PC-3; > 100 µM (inactive) with SK-MEL-2; 86.3 µM (inactive) in the experiment on CCRF-CEM; > 100 µM (inactive) in the experiment with T47D; > 100 µM (inactive) in the experiment with UO-31; > 100 µM (inactive) in the experiment with NCI-H460. Further, the GI50 is > 100 µM (inactive) in the experiment with LOX IMVI; > 100 µM (inactive) in the experiment with SK-MEL-28; 38 µM (inactive) in the experiment with HL-60; > 100 µM (inactive) with MOLT-4; 14 µM (inactive) in the experiment with HOP-92; 67.3 µM (inactive) in the experiment on RXF 393. Moreover, the GI50 was 38.5 µM (inactive) with Hs-578T; > 100 µM (inactive) in the experiment on U-251; 65.8 µM (inactive) in the experiment with HOP-62; > 100 µM (inactive) in the experiment on 786-0; > 100 µM (inactive) in the experiment on UACC-257; 31 µM (inactive) with EKVX. This compound yielded a GI50 in the experiment with HCT-15 above 100 µM.

In the case of `Cn1/c(=N\N=C2\C=C3CCCCC3(C)CC2)sc2ccccc21` (configuration not stated), the GI50 was > 100 µM (inactive) in the experiment with PC-3; > 100 µM (inactive) with SK-MEL-2; > 100 µM (inactive) in the experiment on K562; 55.2 µM (inactive) in the experiment with CCRF-CEM; > 100 µM (inactive) in the experiment with T47D; > 100 µM (inactive) with UO-31. Also, the GI50 in the experiment on NCI-H460, in the experiment with LOX IMVI, in the experiment on SK-MEL-28, with HL-60, in the experiment on HOP-92 and with RXF 393 was > 100 µM (inactive) throughout. For the same compound, the GI50 with Hs-578T, in the experiment with U-251, in the experiment on HOP-62, with 786-0, in the experiment on UACC-257 and with EKVX was > 100 µM (inactive) throughout. This compound also yielded a GI50 in the experiment on HCT-15 above 100 µM.

Turning to `CC(NC(=O)C(Cc1ccc(OC(=O)c2ccccc2)cc1)NC(=O)OC(C)(C)C)C(=O)NC(Cc1ccccc1)C(=O)NCC(N)=O` (configuration not stated) (Boc-Y(Bz)AFG-NH2; configuration not given here), the GI50 in the experiment with PC-3 was 18 µM (inactive); with SK-MEL-2, 17.9 µM (inactive); in the experiment on K562, 25.8 µM (inactive); with CCRF-CEM, 77.8 µM (inactive); in the experiment on T47D, 20.9 µM (inactive); in the experiment with UO-31, 18.8 µM (inactive). Also, the GI50 is 18.3 µM (inactive) in the experiment on NCI-H460; 22 µM (inactive) with LOX IMVI; 28.7 µM (inactive) in the experiment with SK-MEL-28; 25.6 µM (inactive) in the experiment with HL-60; 29.3 µM (inactive) in the experiment with MOLT-4; 23.6 µM (inactive) in the experiment on HOP-92. Also, the GI50 with RXF 393 is 20.9 µM (inactive); with Hs-578T, 20.3 µM (inactive); in the experiment on U-251, 17.8 µM (inactive); in the experiment with HOP-62 it was 14.9 µM (inactive); in the experiment with 786-0, 20.3 µM (inactive); with UACC-257, 19.1 µM (inactive). Moreover, the GI50 in the experiment on HCT-15 is 53 µM.

As for `O=C(O)CNCP(=O)(O)O` [GLYPHOSATE], the GI50 with PC-3, in the experiment with SK-MEL-2, with K562, in the experiment on CCRF-CEM, with T47D and in the experiment on NCI-H460 was > 100 µM (inactive) in each case. For the same compound, the GI50 in the experiment with LOX IMVI, in the experiment with SK-MEL-28, in the experiment on HL-60, in the experiment with MOLT-4, in the experiment with HOP-92 and in the experiment with RXF 393 was > 100 µM (inactive) in each case. Moreover, the GI50 with Hs-578T, in the experiment with U-251, with HOP-62, with 786-0, in the experiment on UACC-257 and in the experiment on EKVX was > 100 µM (inactive) each time. Further, the GI50 with HCT-15 was above 100 µM.

On to `O=S(=O)(O)c1ccc(Nc2ccnc3ccccc23)cc1`, for which the GI50 in the experiment with PC-3, in the experiment with SK-MEL-2, in the experiment on K562, in the experiment with CCRF-CEM, in the experiment with T47D and in the experiment on UO-31 was > 100 µM (inactive) in each case. Also, the GI50 with LOX IMVI, with SK-MEL-28, with HL-60, with MOLT-4, in the experiment with HOP-92 and in the experiment on RXF 393 was > 100 µM (inactive) throughout. Besides, the GI50 with Hs-578T, in the experiment with U-251, in the experiment on HOP-62, in the experiment on 786-0, with UACC-257 and in the experiment on EKVX was > 100 µM (inactive) throughout. In the experiment on HCT-15, this compound had a GI50 above 100 µM.
